Measurements taken from patent US4677104A, “Antipsychotic fused-ring pyridinylpiperazine derivatives” (Bristol-Myers Company, priority 1986, dated 1987).

Experiments:
Type in all cases: in vivo
[1] = tested on: avoidance response to electrical shock in trained fasted rats; assay: Conditioned Avoidance Response (CAR); details: Rattus norvegicus, po
From the text: Conditioned Avoidance Response (CAR) - measure of a
drug's tranquilizing activity as determined by its
attenuation of avoidance response to electrical shock
in trained fasted rats. cf: Albert, Pharmacologist, 4,

[2] = tested on: apomorphine-induced stereotypy in rats; assay: Inhibition of Apomorphine-Induced (APO) Stereotypy; details: Rattus norvegicus, po
From the text: 2. Inhibition of Apomorphine-Induced (APO) Stereotypy -
an assessment of blockade of dopaminergic activity in
rats as measured by attenuation of the behavioral
syndrome caused by the dopamine agonist, apomorphine.
of: Janssen, et al., Arzneimittel. Forsch., 17, 841

[3] = Catalepsy (drug-induced catalepsy); details: rat, in vivo, po, rats; read-out: Catalepsy Induction ED50
From the text: (§1) 3. Catalepsy - drug-induced catalepsy in rats is predic-
(§2) tive of potential extrapyramidal symptoms (EPS) in man.
(§3) of: Costall, et al., Psychopharmacologia, 34, 233-241

[4] = tested on: neuroleptic-induced catalepsy in the rat; assay: Catalepsy Reversal; details: po
From the text: 4. Catalepsy Reversal - measure of a drug's ability to
reverse neuroleptic-induced catalepsy in the rat.

[5] = tested on: drug-induced catalepsy in rats; assay: Catalepsy (drug-induced catalepsy); details: p.o.
From the text: as §1, §2, §3

Compound	ED50 [1]	ED50 [2]	ED50 [3]	ED50 [4]	Catalepsy Induction ED50 [5]
CC1(C)CC(=O)N(CCCCN2CCN(c3nccc4sccc34)CC2)C(=O)C1 [Example 24, 4,4-Dimethyl-1-[4-[4-(thieno[3,2-c]pyridin-4-yl)-1-piperazinyl]butyl]-2,6-piperidinedione]	6 mg/kg	40 mg/kg	> 24 mg/kg	> 20 mg/kg	–
O=C1COCC(=O)N1CCCCN1CCN(c2nccc3occc23)CC1 [Example 25, 4-[4-[4-(4-Furo[3,2-c]pyridinyl)-1-piperazinyl]butyl]-3,5-morpholinedione]	11 mg/kg	34 mg/kg	> 46 mg/kg	2 mg/kg	–
O=C1SC2(CCCC2)C(=O)N1CCCCN1CCN(c2nccc3sccc23)CC1 [Example 26]	12 mg/kg	35 mg/kg	–	> 20 mg/kg	–
OC(CCCN1CCN(c2nccc3sccc23)CC1)c1ccc(F)cc1 (centres unmarked) [Example 27]	10 mg/kg	9 mg/kg	> 40 mg/kg	> 20 mg/kg	–
O=C1SC2(CCCC2)C(=O)N1CCCCN1CCN(c2nccc3sc(Br)cc23)CC1 [Example 28]	> 100 mg/kg	> 100 mg/kg	–	16 mg/kg	–
CC1(C)CC(=O)N(CCCCN2CCN(c3nccc4sc(Br)cc34)CC2)C(=O)C1 [Example 29]	65 mg/kg	–	–	> 20 mg/kg	–
Cc1cc2c(N3CCN(CCCCN4C(=O)SC5(CCCC5)C4=O)CC3)nccc2s1 [Example 30]	35 mg/kg	–	> 142 mg/kg	> 20 mg/kg	–
O=C1CSCC(=O)N1CCCCN1CCN(c2nccc3sccc23)CC1 [Example 31]	32 mg/kg	–	> 128 mg/kg	> 20 mg/kg	–
O=C1SC2(CCCC2)C(=O)N1CCCCN1CCN(c2nccc3ccsc23)CC1 [Example 36]	43 mg/kg	47 mg/kg	–	> 20 mg/kg	–
O=C1SC2(CCCC2)C(=O)N1CCCCN1CCN(c2nccc3occc23)CC1 [Example 37]	9 mg/kg	18 mg/kg	23 mg/kg	> 20 mg/kg	–
CC1(C)CC(=O)N(CCCCN2CCN(c3nccc4occc34)CC2)C(=O)C1 [Example 38]	4 mg/kg	7 mg/kg	13 mg/kg	> 20 mg/kg	–
OC(CCCN1CCN(c2nccc3occc23)CC1)c1ccc(F)cc1 (centres unmarked) [Example 39]	3 mg/kg	5 mg/kg	11 mg/kg	> 20 mg/kg	–
Cc1cc2c(N3CCN(CCCCN4C(=O)SC5(CCCC5)C4=O)CC3)nccc2o1 [Example 40]	28 mg/kg	41 mg/kg	–	–	–
Cc1cc2c(N3CCN(CCCCN4C(=O)CC(C)(C)CC4=O)CC3)nccc2o1 [Example 41]	14 mg/kg	22 mg/kg	40 mg/kg	> 20 mg/kg	–
O=C1CSCC(=O)N1CCCCN1CCN(c2nccc3occc23)CC1 [Example 42]	36 mg/kg	63 mg/kg	–	> 20 mg/kg	–
Cc1cc2c(N3CCN(CCCC(O)c4ccc(F)cc4)CC3)nccc2o1 (centres unmarked) [Example 43]	23 mg/kg	–	–	> 20 mg/kg	–
Cn1ccc2c(N3CCN(CCCCN4C(=O)SC5(CCCC5)C4=O)CC3)nccc21 [Example 47]	60 mg/kg	61 mg/kg	–	> 20 mg/kg	–
Cn1ccc2c(N3CCN(CCCCN4C(=O)COCC4=O)CC3)nccc21 [Example 48]	> 100 mg/kg	> 100 mg/kg	–	> 20 mg/kg	–
Cn1ccc2c(N3CCN(CCCCN4C(=O)CC(C)(C)CC4=O)CC3)nccc21 [Example 49]	67 mg/kg	> 100 mg/kg	–	> 20 mg/kg	–
O=C1CCCC(=O)N1CCCCN1CCN(c2nccc3sccc23)CC1 [Example 58]	5 mg/kg	56 mg/kg	–	> 20 mg/kg	Inactive at 4 ×
